Data on 29 molecules can be found in patent US12590083B2, “Inhibitors of spinster homolog 2 (SPNS2) for use in therapy” (University of Virginia Patent Foundation, priority 2019, dated 2026).

As usually defined, the IC50 is the midpoint of a concentration-inhibition curve.

Structures can show the parent of a compound that is named as a salt.

In this assay the target is T1, human SPNS2 (Homo sapiens, UniProt Q8IVW8).
T1 construct: expressed in transfected cells; host or cells: Saccharomyces cerevisiae strain with forced expression of a mammalian SphK and human SPNS2
T1 sequence (Q8IVW8 1-549): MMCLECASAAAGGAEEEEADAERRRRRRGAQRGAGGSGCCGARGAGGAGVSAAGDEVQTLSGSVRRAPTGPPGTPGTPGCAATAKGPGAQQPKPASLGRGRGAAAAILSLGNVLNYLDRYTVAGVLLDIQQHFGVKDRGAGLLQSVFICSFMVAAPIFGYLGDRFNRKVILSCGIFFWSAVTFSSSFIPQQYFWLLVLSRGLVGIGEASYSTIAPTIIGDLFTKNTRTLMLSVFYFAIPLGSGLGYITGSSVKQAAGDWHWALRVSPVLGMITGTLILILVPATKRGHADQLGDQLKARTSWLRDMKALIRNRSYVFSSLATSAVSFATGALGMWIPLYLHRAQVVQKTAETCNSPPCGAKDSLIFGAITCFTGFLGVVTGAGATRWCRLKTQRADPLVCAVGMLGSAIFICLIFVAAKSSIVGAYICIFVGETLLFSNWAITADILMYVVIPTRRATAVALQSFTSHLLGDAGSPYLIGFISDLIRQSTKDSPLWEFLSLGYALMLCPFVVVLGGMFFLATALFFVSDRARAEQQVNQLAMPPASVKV
Put plainly: S1P transporter assay: growth of S. cerevisiae strain with forced expression of a mammalian SphK and human SPNS2. Type of assay: cell-based. Particulars: in vitro inhibition of SPNS2; growth of S. cerevisiae strain expressing mammalian SphK and human SPNS2; compounds as their pharmaceutical salts. The source says:
Transporter assays are vectorial and, therefore, require measurement of the transported analyte in different compartments. The assay of S1P transporters is problematic because S1P is exported, but not imported, by SPNS2, which obviates measuring uptake of mass- or radio-labeled S1P into transporter-expressing cells.
To assay for SPNS2 inhibitor hits, we took advantage of the growth inhibitory effects of excessive levels of phosphorylated Long Chain Base (phospho-LCB) levels on the budding yeast, S. cerevisiae (Kharel Y, et al. Saccharomyces cerevisiae as a platform for assessing sphingolipid lipid kinase inhibitors. PLoS One 13, e0192179 (2018) PMC5908134). Yeast lack the desaturase that converts dihydroceramide to ceramide and, therefore, have neither sphingosine nor S1P. Rather, yeast have the reduced form, dihydrosphingosine, and the 4-hydroxyl analog, phytosphingosine and their respective phosphates. Like all eukaryotes, the yeast synthesizes (via LCB kinases (SphKs)) and degrades (via phospho-LCB lyase and phosphatase) phospho-LCBs, (dhS1P, phytoS1P). Yeast lack phospho-LCB transporters such as SPNS2, which are found only in vertebrates. To assess inhibition of SPNS2 in vitro, we used a strain of S. cerevisiae wherein expression of a mammalian SphK and human SPNS2 were forced. SPNS2 inhibitors decrease the growth of this strain. Table 2 below presents in vitro inhibition data against SPNS2 for exemplary compounds, presented here as their pharmaceutical salts, of the disclosure (A≤2 μM, B>2 μM).
Consider `CCCCCCCCCCc1cccc(-c2noc([C@@H]3CCN(C(=N)N)C3)n2)c1` [Compound 7t, (R)-3-(3-(3-decylphenyl)-1,2,4-oxadiazol-5-yl)pyrrolidine-1-carboximidamide hydrochloride], for which the IC50 was greater than 2000 nM.
On to `C/C(=N\OCc1ccc(-c2ccccc2)cc1)c1ccc(-c2noc([C@@H]3CCNC3)n2)cc1` [Compound 38d, (R)-1-(4-(5-(pyrrolidin-3-yl)-1,2,4-oxadiazol-3-yl)phenyl)ethan-1-one O-([1,1′-biphenyl]-4-ylmethyl) oxime hydrochloride], for which the 50% inhibitory concentration (IC50) was greater than 2000 nM.
Next, `CCCCc1ccc(Nc2ccc(-c3noc([C@@H]4CCN(C(=N)N)C4)n3)cn2)cc1` [Compound 15i, (R)-3-(3-(6-((4-butylphenyl)amino)pyridin-3-yl)-1,2,4-oxadiazol-5-yl)pyrrolidine-1-carboximidamide hydrochloride]: greater than 2000 nM; `CCCCCCCCCCc1ccc(-c2noc(C[C@@H]3CCN(C(=N)N)C3)n2)cc1C(F)(F)F` [Compound 30g, (S)-3-((3-(4-decyl-3-(trifluoromethyl)phenyl)-1,2,4-oxadiazol-5-yl)methyl)pyrrolidine-1-carboximidamide hydrochloride]: greater than 2000 nM.
On to `CCCCCCCCNC(=O)c1ccc(-c2noc([C@@H]3CCNC3)n2)cc1` [Compound 38p, (R)—N-octyl-4-(5-(pyrrolidin-3-yl)-1,2,4-oxadiazol-3-yl)benzamide hydrochloride], for which the IC50 was greater than 2000 nM.
Regarding `CCCCCCCCCCCc1ccc(-c2noc([C@@H]3CCCNC3)n2)cc1C(F)(F)F` [Compound 28f, (R)-5-(piperidin-3-yl)-3-(3-(trifluoromethyl)-4-undecylphenyl)-1,2,4-oxadiazole hydrochloride], the 50% inhibitory concentration (IC50) was greater than 2000 nM.
Next, `CCCCCCCCCCc1ccc(-c2noc(C[C@@H]3CCCNC3)n2)cc1` [Compound 5q, (S)-3-(4-decylphenyl)-5-(piperidin-3-ylmethyl)-1,2,4-oxadiazole 2,2,2-trifluoroacetate]: no more than 2000 nM; `CCCCNC(=O)c1ccc(-c2noc([C@@H]3CCNC3)n2)cc1` [Compound 38o, (R)—N-butyl-4-(5-(pyrrolidin-3-yl)-1,2,4-oxadiazol-3-yl)benzamide hydrochloride]: greater than 2000 nM.
Take `CCCCCCCO/N=C(\C)c1ccc(-c2noc([C@@H]3CCNC3)n2)cc1` [Compound 38i, hydrochloride]: the IC50 was greater than 2000 nM.
Next, `CCCCCCCCCO/N=C(\C)c1ccc(-c2noc([C@@H]3CCNC3)n2)cc1` [Compound 38j, hydrochloride]: greater than 2000 nM.
Regarding `C/C(=N\OCc1ccc(C(F)(F)F)cc1)c1ccc(-c2noc([C@@H]3CCN(C(=N)N)C3)n2)cc1` [Compound 40c, (R)-3-(3-(4-(1-(((4-(trifluoromethyl)benzyl)oxy)imino)ethyl)phenyl)-1,2,4-oxadiazol-5-yl)pyrrolidine-1-carboximidamide hydrochloride], the IC50 was greater than 2000 nM.
Next, `CCCCCCCCCCc1ccc(Nc2ccc(-c3noc([C@@H]4CCNC4)n3)cn2)cc1` [Compound 13h, (R)—N-(4-decylphenyl)-5-(5-(pyrrolidin-3-yl)-1,2,4-oxadiazol-3-yl)pyridin-2-amine hydrochloride]: greater than 2000 nM.
Next, `C/C(=N\OCc1ccc(C(F)(F)F)cc1)c1ccc(-c2noc([C@@H]3CCNC3)n2)cc1` [Compound 38c, (R)-1-(4-(5-(pyrrolidin-3-yl)-1,2,4-oxadiazol-3-yl)phenyl)ethan-1-one O-(4-(trifluoromethyl)benzyl) oxime hydrochloride]: greater than 2000 nM; `FC(F)(F)c1cc(-c2noc([C@@H]3CCCNC3)n2)ccc1OCCCc1ccccc1` [Compound 21j, (R)-3-(4-(3-phenylpropoxy)-3-(trifluoromethyl)phenyl)-5-(piperidin-3-yl)-1,2,4-oxadiazole hydrochloride]: greater than 2000 nM; `CCCCCCCOc1ccc(-c2noc([C@@H]3CCCN(C(=N)N)C3)n2)cc1C(F)(F)F` [Compound 23c, (R)-3-(3-(4-(heptyloxy)-3-(trifluoromethyl)phenyl)-1,2,4-oxadiazol-5-yl)piperidine-1-carboximidamide hydrochloride]: no more than 2000 nM.
On to `C/C(=N\OCc1cc(C(F)(F)F)cc(C(F)(F)F)c1)c1ccc(-c2noc([C@@H]3CCN(C(=N)N)C3)n2)cc1` [Compound 40b, (R)-3-(3-(4-(1-(((3,5-bis(trifluoromethyl)benzyl)oxy)imino)ethyl)phenyl)-1,2,4-oxadiazol-5-yl)pyrrolidine-1-carboximidamide hydrochloride], for which the IC50 was no more than 2000 nM.
Next, `CCCCCCCCCCc1ccc(-c2noc(C[C@@H]3CCNC3)n2)cc1` [Compound 5p, (S)-3-(4-decylphenyl)-5-(pyrrolidin-3-ylmethyl)-1,2,4-oxadiazole 2,2,2-trifluoroacetate]: no more than 2000 nM; `CCCCCCCCCc1ccc(-c2noc([C@@H]3CCCN(C(=N)N)C3)n2)cc1` [Compound 7yb, (R)-3-(3-(4-nonylphenyl)-1,2,4-oxadiazol-5-yl)piperidine-1-carboximidamide hydrochloride]: no more than 2000 nM; `CCCCCCCCCCc1ccc(-c2noc([C@H]3CCNC3)n2)cc1` [Compound 5e, (S)-3-(3-(4-decylphenyl)-1,2,4-oxadiazol-5-yl)pyrrolidin-1-ium 2,2,2-trifluoroacetate]: greater than 2000 nM.
Next, `CCCCCCCCOc1ccc(-c2noc([C@@H]3CCCNC3)n2)cc1C(F)(F)F` [Compound 21d, (R)-3-(4-(octyloxy)-3-(trifluoromethyl)phenyl)-5-(piperidin-3-yl)-1,2,4-oxadiazole hydrochloride]: greater than 2000 nM; `CCCCCCCCc1ccc(-c2noc(C3CN(C(=N)N)C3)n2)cc1` [Compound 7d, 3-(3-(4-octylphenyl)-1,2,4-oxadiazol-5-yl)azetidine-1-carboximidamide hydrochloride]: greater than 2000 nM; `C/C(=N\OCc1ccc(Br)cc1)c1ccc(-c2noc([C@@H]3CCNC3)n2)cc1` [Compound 38n, (R)-1-(4-(5-(pyrrolidin-3-yl)-1,2,4-oxadiazol-3-yl)phenyl)ethan-1-one O-(4-bromobenzyl) oxime hydrochloride]: no more than 2000 nM.
Next, `N=C(N)N1CC(c2nc(-c3ccc(OCc4ccc(C(F)(F)F)cc4)c(C(F)(F)F)c3)no2)C1` [Compound 23g, 3-(3-(3-(trifluoromethyl)-4-((4-(trifluoromethyl)benzyl)oxy)phenyl)-1,2,4-oxadiazol-5-yl)azetidine-1-carboximidamide hydrochloride]: greater than 2000 nM.
Take `C/C(=N\OCc1ccc(C(C)(C)C)cc1)c1ccc(-c2noc([C@@H]3CCN(C(=N)N)C3)n2)cc1` [Compound 40k, (R)-3-(3-(4-(1-(((4-(tert-butyl)benzyl)oxy)imino)ethyl)phenyl)-1,2,4-oxadiazol-5-yl)pyrrolidine-1-carboximidamide hydrochloride]: the IC50 was no more than 2000 nM.
As to `CCCCCCCCCCc1ccc(-c2noc(C[C@@H]3CCNC3)n2)cc1C(F)(F)F` [Compound 28g, (S)-3-(4-decyl-3-(trifluoromethyl)phenyl)-5-(pyrrolidin-3-ylmethyl)-1,2,4-oxadiazole hydrochloride], the IC50 was greater than 2000 nM.
On to `c1cc(N2CCOCC2)ncc1-c1noc([C@@H]2CCNC2)n1` [Compound 13d, (R)-4-(5-(5-(pyrrolidin-3-yl)-1,2,4-oxadiazol-3-yl)pyridin-2-yl)morpholine hydrochloride], for which the concentration for half-maximal inhibition (IC50) was greater than 2000 nM.
Next, `C/C(=N\OCc1ccc(C(C)(C)C)cc1)c1ccc(-c2noc([C@@H]3CCNC3)n2)cc1` [Compound 38k, (R,E)-1-(4-(5-(pyrrolidin-3-yl)-1,2,4-oxadiazol-3-yl)phenyl)ethan-1-one O-(4-(tert-butyl)benzyl) oxime hydrochlorid]: no more than 2000 nM; `N=C(N)N1CCC[C@@H](c2nc(-c3ccc(OCc4ccc(C(F)(F)F)cc4)c(C(F)(F)F)c3)no2)C1` [Compound 23h, (R)-3-(3-(3-(trifluoromethyl)-4-((4-(trifluoromethyl)benzyl)oxy)phenyl)-1,2,4-oxadiazol-5-yl)piperidine-1-carboximidamide hydrochloride]: greater than 2000 nM.
As for `C/C(=N\OC(C)c1ccccc1)c1ccc(-c2noc([C@@H]3CCN(C(=N)N)C3)n2)cc1` (some centres unmarked) [Compound 40f, hydrochloride], the concentration for half-maximal inhibition (IC50) is greater than 2000 nM.
